Measured values taken from patent publication US9260476B2, “RNA targeting compounds and methods for making and using same” (The Research Foundation for The State University of New York, priority 2007, dated 2016).
Entries after “also recorded” stand apart in the source; their conditions may differ.

Columns and labels:
[1] = test system: C2C12 cell line expressing firefly luciferase mRNA with r(CUG)800 in the 3′ UTR; assay: Luciferase translational defect assay, r(CUG)800 in the 3′ UTR; assay type: cell-based
Excerpt: The C2C12 cell line was stably transfected with the firefly luciferase gene in which r(CTG)800 was placed in the 3′UTR.(31) Expression of luciferase is low in this cell line due to the binding of r(CUG)800 to MBNL1 and other proteins, resulting in nuclear retention of the luciferase mRNA.
A C2C12 cell line that stably expresses the firefly luciferase gene containing a (CTG)800 expansion in the 3′ UTR was employed for these studies. As in DM1-affected cells, the presence of r(CUG)800 causes nuclear retention of the luciferase mRNA and thus decreased expression of luciferase.
(§1) C2C12 cell lines expressing 800 (C5-14) or 0 (C1-S) CTG repeats in the 3′ UTR of luciferase were maintained as monolayers in growth medium (1×DMEM (Invitrogen) supplemented with 10% FBS (Invitrogen), 1× Glutamax (Invitrogen), and 1× Penicillin/Streptomycin (MP Biomedicals, LLC)). The cells were plated in 96-well plates and allowed to grow for 24 h. The compound of interest was then added in 50 μL, and the cells were treated for 24 h.
(§2) The growth medium containing the compound of interest was removed and replaced with 100 μL of medium and 10 μL of WST-1 reagent (Roche). After 30 min, 60 μL aliquots were removed and placed into clear 96-well plates. The absorbance of the medium was measured at 450 nm and 690 nm. The corrected absorbance (Abs450-Abs690) was used to normalize each well for cell count.
(§3) The remaining medium containing WST-1 reagent was removed, and 20 μL of 1× Passive Lysis Buffer (Promega) was added to each well. The cells were placed at −20° C. for 15 min. After the buffer thawed, 100 μL of Luciferase Assay Substrate (Promega) were added to each well. Luminescence was immediately read on a SpectraMax M5 plate reader using an integration time of 5000 ms. The luminescence signal was normalized to the number of cells in the corresponding well using the results of the WST-1/cell proliferation assay.

[2] = test system: C2C12 cell line expressing luciferase mRNA without r(CUG)^exp in the 3′ UTR; assay: Control luciferase assay without r(CUG) repeats; assay type: cell-based; conditions: 50 μM
Method: as §1, §2, §3

[3] = test system: r(CUG)^exp nuclear foci in HeLa cells transfected with the DM1 mini-gene; assay: Fluorescence in situ hybridization (FISH) and confocal microscopy of nuclear foci; assay type: cell-based; conditions: 25 μM, 16-24 h
Excerpt: Another hallmark of DM1-affected cells is the presence of nuclear foci that consist of r(CUG)^exp-protein complexes (26). Therefore, a fluorescence in situ hybridization assay (FISH) was used to probe if 4K-2-DR9 can decrease the occurrence of nuclear foci. HeLa cells were transfected with the DM1 mini-gene and treated with 4K-2-DR9. The cells were then probed with a 2′-O-methyl oligonucleotide labeled with Cy3 that is complementary to r(CUG)^exp. The cells were then imaged via confocal microscopy (FIG. 12). In the absence of 4K-2-DR9, multiple nuclear foci are observed in each cell, which correspond to r(CUG)^exp-protein complexes (FIG. 12a). […] Since 4K-2-DR9 is labeled with fluorescein, cellular permeability and localization can also be imaged.
HeLa cells were grown as monolayers in Mat-Tak glass-bottomed, 96-well plates. After the cells reached 90-95% confluency, they were transfected with 200 ng of a plasmid encoding a DM1 mini-gene (21) using Lipfoectamine 2000 per the manufacturer's standard protocol. […]
Another hallmark of DM1 is the presence of nuclear foci caused by aggregates of r(CUG)^exp and various proteins including MBNL1.(26-31) Thus, it was determined if nH-4 compounds can disrupt formation of nuclear foci. […] Fluorescence in situ hybridization (FISH) was then used to visualize the r(CUG)^exp. […]

[4] = test system: C2C12 cell line expressing firefly luciferase mRNA with r(CUG)800 in the 3′ UTR; conditions: ref (31); cited from earlier work

SMILES: CCCN(CC(=O)N(CCC)CC(=O)N(CCC)CC(=O)N(CCC)CC(=O)N(CC(=O)N(CCC)CC(=O)N(CCC)CC(=O)N(CCC)CC(=O)N(CCC)CC(=O)N(CC(N)=O)Cc1cn(CCCNC(=O)CCCOc2cccc(-c3nc4ccc(-c5nc6ccc(N7CCN(C)CC7)cc6[nH]5)cc4[nH]3)c2)nn1)Cc1cn(CCCNC(=O)CCCOc2cccc(-c3nc4ccc(-c5nc6ccc(N7CCN(C)CC7)cc6[nH]5)cc4[nH]3)c2)nn1)C(=O)CNCc1cn(CCCNC(=O)CCCOc2cccc(-c3nc4ccc(-c5nc6ccc(N7CCN(C)CC7)cc6[nH]5)cc4[nH]3)c2)nn1 [Compound 3H-4]
- increase in luciferase activity ([1]; 2.5 μM): ≈ 100%
- improvement of DM1 translational defect ([1]; concentration not given): most effectively improves the DMPK mRNA translational defect; also recorded: improve translational defects associated with DM1
- luciferase activity in cell line without (CTG)800 [2]: Increased luciferase activity is not observed; also recorded: No effect on translation of firefly luciferase is observed
- disruption of nuclear foci [3]: the number of foci is decreased and the foci are more diffuse
- concentration that increased translation by 100% [4]: 3 µM
